The values below come from patent US20250340565A1, “CD73 INHIBITOR COMPOUNDS” (AdoRx Therapeutics Limited, priority 2022, published 2025).

One test has as its target CD73 in whole blood (Homo sapiens (Human), UniProt P21589). Nature of the test: Whole blood AMP Glo assay. It counts as cell-based. The note with it: whole blood of healthy volunteers, 10 μM AMP, 30 min pre-incubation, 15 min at 37° C., levamisole 1.5 mM. The gist of the method: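 Heparinised healthy-donor human whole blood, with 1.5 mM levamisole, preincubated with compound 30 min at 37 °C, then 10 μM AMP added for 15 min at 37 °C (0.6% DMSO). Remaining plasma AMP measured by AMP-Glo luminescence against a standard curve; IC50 from curve inflection point.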

Test [1] concerns the target human (h)CD73 (amino acids Trp27-Lys547) (Homo sapiens, UniProt P21589). Nature of the test: CD73 inhibition assay (Malachite Green phosphate detection). The note with it: 250 pM hCD73, 12.5 μM AMP, 20 min pre-incubation, absorbance 620 nm. The class given is biochemical. The gist of the method:
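250 pM hCD73 (Trp27-Lys547) preincubated 20 min with compound (1% DMSO) in 25 mM Tris pH 7.5, 5 mM MgCl2, 0.002% Tween20. Reaction with 12.5 μM AMP for 20 min at room temperature; phosphate detected by malachite green at 620 nm. Data normalised to no compound (0%) and 10 μM control compound (100%).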

The target of test [2] is CD73 activity in U138-MG cells (Homo sapiens (Human), UniProt P21589). Nature of the test: U138-MG inhibition assay (inorganic phosphate from AMP, PiColorLock Gold). It counts as cell-based. The conditions noted are these: 100 μM AMP, 30 min pre-incubation, 1 hour at 37° C. The gist of the method:
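Washed U138-MG cells in HEPES-buffered saline (pH 7.4) preincubated 30 min at 37 °C with inhibitor, then given 100 μM AMP (final) for 1 h at 37 °C. Released phosphate in supernatant read by PiColorLock Gold; no-AMP wells define 100% inhibition. IC50 taken as inflection of sigmoidal curve.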

Each structure is given as a SMILES string. Where a name gives a salt, the structure may show the parent alone.

In general, IC50 refers to the concentration that inhibits the measured activity by half. A low value points to greater potency in that assay.

CD73 in whole blood, sequence (P21589 27-574): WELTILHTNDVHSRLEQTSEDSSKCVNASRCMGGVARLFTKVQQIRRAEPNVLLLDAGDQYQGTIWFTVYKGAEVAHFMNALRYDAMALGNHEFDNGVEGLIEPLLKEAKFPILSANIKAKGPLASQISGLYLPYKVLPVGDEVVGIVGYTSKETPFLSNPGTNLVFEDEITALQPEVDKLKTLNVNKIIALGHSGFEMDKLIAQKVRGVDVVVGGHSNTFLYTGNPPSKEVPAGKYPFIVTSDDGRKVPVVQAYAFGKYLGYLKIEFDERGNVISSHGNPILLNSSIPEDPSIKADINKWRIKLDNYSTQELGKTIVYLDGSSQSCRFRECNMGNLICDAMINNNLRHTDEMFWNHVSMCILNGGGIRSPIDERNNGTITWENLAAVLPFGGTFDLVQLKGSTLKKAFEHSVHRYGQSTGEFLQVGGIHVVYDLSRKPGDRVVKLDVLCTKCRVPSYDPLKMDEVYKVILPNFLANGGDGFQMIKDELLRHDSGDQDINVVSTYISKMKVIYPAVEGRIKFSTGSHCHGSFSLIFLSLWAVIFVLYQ
CD73 activity in U138-MG cells, sequence (P21589 27-574): as above

Take `O=c1[nH]cc(-c2cc3c(N4CC(OCCN5CCCCC5)C(F)(F)C4)ncnn3c2)c(=O)[nH]1` (stereo not drawn) [Example 17, 5-[4-[3,3-Difluoro-4-[2-(1-piperidyl)ethoxy]pyrrolidin-1-yl]pyrrolo[2,1-f][1,2,4]triazin-6-yl]-1H-pyrimidine-2,4-dione formate salt]: the values for the IC50 (against CD73 in whole blood; in test [1]; in test [2]) were 119 nM, 59.4 nM and 108 nM, respectively.

For `O=C1N=CC(c2cc3c(N4CCC(OCCN5CCCCC5)C4)nc(Cl)nn3c2)C(=O)N1` (stereo not drawn) [Example 18, 5-[2-Chloro-4-[3-[2-(1-piperidyl)ethoxy]pyrrolidin-1-yl]pyrrolo[2,1-f][1,2,4]triazin-6-yl]-5H-pyrimidine-2,4-dione], the results for the IC50 (on CD73 in whole blood; in test [1]; in test [2]) were 118 nM, 62.5 nM and 91.1 nM, respectively.

For `O=c1[nH]cc(-c2cc3c(N4CC(F)(F)C5(CCC5)C4)ncnc3o2)c(=O)[nH]1` [Example 19, 5-[4-(8,8-Difluoro-6-azaspiro[3.4]octan-6-yl)furo[2,3-d]pyrimidin-6-yl]-1H-pyrimidine-2,4-dione], the IC50 on CD73 in whole blood was determined as 1240 nM; in test [1], 58.2 nM; in test [2], 68.7 nM.

For the compound `O=c1[nH]cc(-c2cc3c(N4CC(F)(F)C5(CCCC5)C4)ncnc3o2)c(=O)[nH]1` [Example 19.1, 5-[4-(4,4-Difluoro-2-azaspiro[4.4]nonan-2-yl)furo[2,3-d]pyrimidin-6-yl]-1H-pyrimidine-2,4-dione], the values for the IC50 (at CD73 in whole blood; in test [1]; in test [2]) were 1990 nM, 96.2 nM and 104 nM, respectively.

For `O=c1[nH]cc(-c2cc3c(N4CC(F)(F)C5(CC5)C4)ncnc3o2)c(=O)[nH]1` [Example 19.3, 5-[4-(7,7-Difluoro-5-azaspiro[2.4]heptan-5-yl)furo[2,3-d]pyrimidin-6-yl]-1H-pyrimidine-2,4-dione], the IC50 at CD73 in whole blood stood at 652 nM; in test [1] it was 137 nM; in test [2], 28.3 nM.

In the case of `O=c1[nH]cc(-c2cc3c(N4CCC(OCCN5CCC(C(F)(F)F)CC5)C4)ncnc3o2)c(=O)[nH]1` (stereo not drawn) [Example 21, 5-[4-[3-[2-[4-(Trifluoromethyl)-1-piperidyl]ethoxy]pyrrolidine-1-yl]furo[2,3-d]pyrimidin-6-yl]-1H-pyrimidine-2,4-dione], the IC50 on CD73 in whole blood stood at 40.2 nM; in test [1], 100 nM; in test [2] it was 70.8 nM.

Consider `O=C(OC1CN(c2ncnc3oc(-c4c[nH]c(=O)[nH]c4=O)cc23)CC1(F)F)N1CCOCC1` (stereo not drawn) [Example 22, [1-[6-(2,4-Dioxo-1H-pyrimidin-5-yl)furo[2,3-d]pyrimidin-4-yl]-4,4-difluoro-pyrrolidin-3-yl]morpholine-4-carboxylate], for which the IC50 against CD73 in whole blood was 65.5 nM; in test [1] it was 136 nM; in test [2] it was 84.5 nM.

As for `O=C(OC1CN(c2ncnc3oc(-c4c[nH]c(=O)[nH]c4=O)cc23)CC1(F)F)N1CC2CCC(C1)O2` (stereo not drawn) [Example 22.1, [1-[6-(2,4-Dioxo-1H-pyrimidin-5-yl)furo[2,3-d]pyrimidin-4-yl]-4,4-difluoro-pyrrolidin-3-yl]8-oxa-3-azabicyclo[3.2.1]octane-3-carboxylate], the IC50 on CD73 in whole blood came to 139 nM; in test [1], 152 nM; in test [2], 61.9 nM.

With `Cc1nc(N2CC(C)(C)C(F)(F)C2)c2cn(-c3c[nH]c(=O)[nH]c3=O)nc2n1` [Example 23, 5-[4-(3,3-Difluoro-4,4-dimethyl-pyrrolidin-1-yl)-6-methyl-pyrazolo[3,4-d]pyrimidin-2-yl]-1H-pyrimidine-2,4-dione], the 50% inhibitory concentration (IC50) at CD73 in whole blood stood at 1.5 nM; in test [1], 152 nM; in test [2] it was 10.5 nM.

`N#Cc1ccc(OC2CCN(c3ncnc4nn(-c5c[nH]c(=O)[nH]c5=O)cc34)C2)nc1` (stereo not drawn) [Example 24, 6-[1-[2-(2,4-Dioxo-1H-pyrimidin-5-yl)pyrazolo[3,4-d]pyrimidin-4-yl]pyrrolidine-3-yl]oxypyridine-3-carbonitrile]: the half-inhibitory concentration (IC50) at CD73 in whole blood turned out to be 1.4 nM; in test [1], 35.5 nM; in test [2], 11.8 nM.

`CC1(C)CN(c2nccn3nc(-c4c[nH]c(=O)[nH]c4=O)cc23)CC1(F)F` [Example 25, 5-[4-(3,3-Difluoro-4,4-dimethyl-pyrrolidin-1-yl)pyrazolo[1,5-a]pyrazin-2-yl]-1H-pyrimidine-2,4-dione]: the IC50 at CD73 in whole blood is 155 nM; in test [1], 34.2 nM; in test [2], 38.6 nM.

In the case of `O=c1[nH]cc(-c2cc3c(N4CC(F)(F)C5(CCC5)C4)nccn3n2)c(=O)[nH]1` [Example 25.1, 5-[4-(8,8-Difluoro-6-azaspiro[3.4]octan-6-yl)pyrazolo[1,5-a]pyrazin-2-yl]-1H-pyrimidine-2,4-dione], the IC50 is 645 nM at CD73 in whole blood, 42.3 nM in test [1] and 38.3 nM in test [2].

As to `CC1(C)CN(c2ncc(Cl)n3nc(-c4c[nH]c(=O)[nH]c4=O)cc23)CC1(F)F` [Example 25.8, 5-[7-chloro-4-(3,3-difluoro-4,4-dimethyl-pyrrolidin-1-yl)pyrazolo[1,5-a]pyrazin-2-yl]-1H-pyrimidine-2,4-dione], the IC50 against CD73 in whole blood came out at 38 nM; in test [1], 16 nM; in test [2], 2.8 nM.

In the case of `CC1(C)CN(c2ncc(C(F)(F)F)n3nc(-c4c[nH]c(=O)[nH]c4=O)cc23)CC1(F)F` [Example 25.9, 5-[4-(3,3-difluoro-4,4-dimethyl-pyrrolidin-1-yl)-7-(trifluoromethyl)pyrazolo[1,5-a]pyrazin-2-yl]-1H-pyrimidine-2,4-dione], the IC50 worked out at 18000 nM on CD73 in whole blood, 58 nM in test [1] and 22 nM in test [2].

Turning to `CC1(C)CN(c2ncc(F)c3nn(-c4c[nH]c(=O)[nH]c4=O)cc23)CC1(F)F` [Example 26, 5-[4-(3,3-Difluoro-4,4-dimethyl-pyrrolidin-1-yl)-7-fluoro-pyrazolo[4,3-c]pyridin-2-yl]-1H-pyrimidine-2,4-dione], the IC50 against CD73 in whole blood came to 16 nM; in test [1], 55.6 nM; in test [2], 2.9 nM.

`O=c1[nH]cc(-n2cc3c(N4CC(F)(F)C5(CCC5)C4)ncc(F)c3n2)c(=O)[nH]1` [Example 26.1, 5-[4-(8,8-difluoro-6-azaspiro[3.4]octan-6-yl)-7-fluoro-pyrazolo[4,3-c]pyridin-2-yl]-1H-pyrimidine-2,4-dione]: the figures for the IC50 (against CD73 in whole blood; in test [1]; in test [2]) were 37 nM, 22.9 nM and 5 nM, respectively.

For `O=c1[nH]cc(-n2cc3c(N4CCC5(COC5)C4)ncc(F)c3n2)c(=O)[nH]1` [Example 26.4, 5-[7-fluoro-4-(2-oxa-7-azaspiro[3.4]octan-7-yl)pyrazolo[4,3-c]pyridin-2-yl]-1H-pyrimidine-2,4-dione], the IC50 amounted to 69 nM against CD73 in whole blood, 68.2 nM in test [1] and 17 nM in test [2].

On to `O=c1[nH]cc(-n2cc3c(N4CC(F)(F)C5(CC5)C4)ncc(F)c3n2)c(=O)[nH]1` [Example 26.5, 5-[4-(7,7-difluoro-5-azaspiro[2.4]heptan-5-yl)-7-fluoro-pyrazolo[4,3-c]pyridin-2-yl]-1H-pyrimidine-2,4-dione], for which the IC50 on CD73 in whole blood worked out at 254 nM; in test [1], 46 nM; in test [2], 14 nM.

Regarding `CC1(C)CN(c2nccc3nn(-c4c[nH]c(=O)[nH]c4=O)cc23)CC1(F)F` [Example 27, 5-[4-(3,3-Difluoro-4,4-dimethyl-pyrrolidin-1-yl)pyrazolo[4,3-c]pyridin-2-yl]-1H-pyrimidine-2,4-dione], the values for the IC50 (at CD73 in whole blood; in test [1]; in test [2]) were 16 nM, 65 nM and 20 nM, respectively.

On to `O=c1[nH]cc(-n2cc3c(N4CC(F)(F)C5(CC5)C4)ncc(Cl)c3n2)c(=O)[nH]1` [Example 28.1, 5-[7-chloro-4-(7,7-difluoro-5-azaspiro[2.4]heptan-5-yl)pyrazolo[4,3-c]pyridin-2-yl]-1H-pyrimidine-2,4-dione], for which the results for the IC50 (at CD73 in whole blood; in test [1]; in test [2]) were 20 nM, 15 nM and 3.6 nM, respectively.

With `O=c1[nH]cc(-n2cc3c(N4CC(F)(F)C5(CCC5)C4)ncc(Cl)c3n2)c(=O)[nH]1` [Example 28.2, 5-[7-chloro-4-(8,8-difluoro-6-azaspiro[3.4]octan-6-yl)pyrazolo[4,3-c]pyridin-2-yl]-1H-pyrimidine-2,4-dione], the IC50 was found to be 26 nM against CD73 in whole blood, 20 nM in test [1] and 1.9 nM in test [2].

For `CC1(C)CN(c2ncc(C#N)c3nn(-c4c[nH]c(=O)[nH]c4=O)cc23)CC1(F)F` [Example 29, 4-(3,3-difluoro-4,4-dimethyl-pyrrolidin-1-yl)-2-(2,4-dioxo-1H-pyrimidin-5-yl)pyrazolo[4,3-c]pyridine-7-carbonitrile], the IC50 was 47 nM against CD73 in whole blood, 52 nM in test [1] and 8 nM in test [2].

As to `CC1(C)CN(c2ccnc3nn(-c4c[nH]c(=O)[nH]c4=O)cc23)CC1(F)F` [Example 30, 5-[4-(3,3-difluoro-4,4-dimethyl-pyrrolidin-1-yl)pyrazolo[3,4-b]pyridine-2-yl]-1H-pyrimidine-2,4-dione], the IC50 was 20 nM against CD73 in whole blood, 115 nM in test [1] and 12 nM in test [2].
